# Laboratory results from article PMC8508960, “Ruthenium Half-Sandwich Type Complexes with Bidentate Monosaccharide Ligands Show Antineoplastic Activity in Ovarian Cancer Cell Models through Reactive Oxygen Species Production” (International Journal of Molecular Sciences, 2021).
# Assay: Aqueous stability over time by NMR
# Type: physicochemical
# Conditions: aqueous medium, 2 day old equilibrated sample, KCl added
# Text: The aqueous stability of the complexes was also studied over time. The small shifts of signals attributable to the structural change of the complex can be observed; however, by adding KCl to the 2 day old equilibrated sample, the original signals could be recovered.
structure (smiles),measurement,value
Cc1ccc(C(C)C)cc1.F[P-](F)(F)(F)(F)F.OCC1OC(n2cc(-c3ccccn3)nn2)C(O)C(O)C1O.[Cl][Ru+] (mixture of isomers) [Ru-3a],aqueous stability over time (NMR),only the exchange of the coordinating chloride ion by a water molecule occurred in a reversible manner
